Key:
[1] = system: HepG2 (hepatocellular carcinoma cell line G2); test: HepG2 high-content cell-imaging assays (mitochondrial poison); type: cell-based, human
Source text: (§1) There are 467 cell-free or cell-based assays.

PPARα = biological target: T1, PPARα (Homo sapiens, UniProt Q07869); test: PPARα assays
T1 sequence (Q07869 1-468): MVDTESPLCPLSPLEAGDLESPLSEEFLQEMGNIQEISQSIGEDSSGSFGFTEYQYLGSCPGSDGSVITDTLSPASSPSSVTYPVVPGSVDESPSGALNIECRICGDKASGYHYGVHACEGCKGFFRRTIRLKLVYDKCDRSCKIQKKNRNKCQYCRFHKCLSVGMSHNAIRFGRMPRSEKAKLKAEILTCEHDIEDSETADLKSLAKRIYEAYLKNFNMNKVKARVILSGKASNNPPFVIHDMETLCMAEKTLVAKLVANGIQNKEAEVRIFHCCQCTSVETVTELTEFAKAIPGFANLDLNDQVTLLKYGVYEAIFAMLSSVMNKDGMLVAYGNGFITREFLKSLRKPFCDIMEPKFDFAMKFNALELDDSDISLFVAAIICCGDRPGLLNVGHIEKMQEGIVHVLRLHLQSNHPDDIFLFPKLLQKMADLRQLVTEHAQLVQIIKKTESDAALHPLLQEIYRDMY
Source text: as §1

MMP13 = MMP13 (Homo sapiens, UniProt P45452); test: Cell-free HTS assay, direct interaction with MMP13; type: biochemical
Source text: as §1

[2] = biological target: matrix metalloproteinase (MMP)3 (Homo sapiens, UniProt P08254); test: Cell-free HTS assay, direct interaction with MMP3; type: biochemical
Source text: as §1

PPARγ = biological target: T2, PPARγ (Homo sapiens, UniProt P37231); test: PPARγ assays
T2 sequence (P37231 1-505): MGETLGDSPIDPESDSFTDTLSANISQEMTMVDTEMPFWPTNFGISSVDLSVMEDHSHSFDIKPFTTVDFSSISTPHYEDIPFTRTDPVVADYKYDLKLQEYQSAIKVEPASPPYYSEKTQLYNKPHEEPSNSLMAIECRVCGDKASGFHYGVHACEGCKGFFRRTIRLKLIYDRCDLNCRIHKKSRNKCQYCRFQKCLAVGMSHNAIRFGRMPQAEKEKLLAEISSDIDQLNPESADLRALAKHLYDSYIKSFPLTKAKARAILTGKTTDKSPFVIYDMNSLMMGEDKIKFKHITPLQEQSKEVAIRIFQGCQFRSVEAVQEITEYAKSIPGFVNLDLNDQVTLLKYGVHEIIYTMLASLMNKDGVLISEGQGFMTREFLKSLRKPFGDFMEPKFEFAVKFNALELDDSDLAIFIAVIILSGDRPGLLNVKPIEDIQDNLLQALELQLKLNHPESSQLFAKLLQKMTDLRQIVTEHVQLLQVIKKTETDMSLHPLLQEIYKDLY
Source text: We screened the chemical library using nine separate assay technologies, with assays run in concentration–response format and in some cases with multiple time points. Assays encompass both direct, primary interactions between chemicals and molecular targets and downstream cellular events such as gene expression. […] There are 467 cell-free or cell-based assays. Assay sets include biochemical HTS and cell-based HTS assays measuring direct molecular interactions with specific protein targets; high-content cell-imaging assays measuring complex cellular phenotypes; a multiplexed gene expression assay for xenobiotic metabolizing enzymes and transporters in human primary hepatocytes; multiplexed transcription factor reporter assays; multiplexed biological activity profiling assays measuring biomarkers in a variety of human primary cell cocultures; assays measuring effects of phase I and II xenobiotic metabolizing enzyme (XMEs) on cytotoxicity; an HTS genotoxicity assay; and a real-time cellular impedance assay that measures the kinetics of cell growth and changes in morphology. For all cell-based assays, time points were selected on the basis of studies conducted during the assay development and were considered optimal for the end point being evaluated.
A total of 624 in vitro assay end points (including multiple time points) were measured for each chemical, generating > 200,000 concentration responses. […] In all cases we report a characteristic micromolar concentration for each chemical–assay combination.

MMP9 = test: Cell-based assay, perturbation of MMP9 levels
Source text: as §1

MMP1 = test: Cell-based assay, perturbation of MMP1 levels
Source text: as §1

Chain of matrix metalloproteinase (MMP)3 (P08254 100-477): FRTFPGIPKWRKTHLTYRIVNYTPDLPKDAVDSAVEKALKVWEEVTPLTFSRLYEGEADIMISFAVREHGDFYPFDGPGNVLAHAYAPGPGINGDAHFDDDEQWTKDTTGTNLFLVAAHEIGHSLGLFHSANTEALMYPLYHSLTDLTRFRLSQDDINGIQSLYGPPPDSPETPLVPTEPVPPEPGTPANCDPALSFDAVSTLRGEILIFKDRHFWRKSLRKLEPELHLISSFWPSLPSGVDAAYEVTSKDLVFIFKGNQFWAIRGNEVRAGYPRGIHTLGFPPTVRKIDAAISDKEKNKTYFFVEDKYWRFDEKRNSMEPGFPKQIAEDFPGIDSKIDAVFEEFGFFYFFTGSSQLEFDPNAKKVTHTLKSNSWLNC

SMILES	Mitochondrial poison activity in HepG2 high-content cell imaging [1]	Activity in PPARα assays (PPARα)	Activity in PPARγ assays (PPARγ)	further results
CO/C=C(/C(=O)OC)c1ccccc1Oc1cc(Oc2ccccc2C#N)ncn1 [Azoxystrobin]	active mitochondrial poisons	–	–	–
O=C(O)C(F)(F)C(F)(F)C(F)(F)C(F)(F)C(F)(F)C(F)(F)C(F)(F)F [PFOA, perfluorooctanoic acid]	–	active	–	–
O=S(=O)(O)C(F)(F)C(F)(F)C(F)(F)C(F)(F)C(F)(F)C(F)(F)C(F)(F)C(F)(F)F [PFOS, perfluorooctane sulfonic acid]	–	all but PFOS were also active	positive	AC50 (MMP13): 32.4 µM; AC50 [2]: 14.6 µM; AC50 (MMP9): 4.4 µM; AC50 (MMP1): 13.3 µM
CCCCC(CC)COC(=O)c1ccccc1C(=O)OCC(CC)CCCC (centres unmarked) [diethylhexyl phthalate]	–	active	positive	–
CO/N=C(/C1=NOCCO1)c1ccccc1Oc1ncnc(Oc2ccccc2Cl)c1F [fluoxastrobin]	active mitochondrial poisons	–	–	–
CCOC(=O)C(C)OC(=O)c1cc(Oc2ccc(C(F)(F)F)cc2Cl)ccc1[N+](=O)[O-] (centres unmarked) [lactofen]	–	active	positive	–
COC(=O)N(OC)c1ccccc1COc1ccn(-c2ccc(Cl)cc2)n1 [pyraclostrobin]	active mitochondrial poisons	–	–	–

— article PMC2854724, “In Vitro Screening of Environmental Chemicals for Targeted Testing Prioritization: The ToxCast Project” (Environmental Health Perspectives, 2009)
